This test addresses GABAB receptor (Homo sapiens, UniProt Q9UBS5). Description: GABAB receptor agonist or partial agonist activity by binding, electrophysiology, cAMP and/or Ca2+ assay methods (Examples 83-86). Type of test: cell-based. Here is the method: An assay using rat cerebral cortex membranes was used to determine the affinity of GABAB receptor ligands for the GABAB receptor.
An assay buffer of 50 mM Tris pH 7.4 was prepared with 100 μM of isoguvacine, to block GABAA interactions. The assay buffer with isoguvacine was used for dilution of membranes, compounds, and radiolabel.
Rat cerebral cortex membranes were diluted in assay buffer at 1 mg/mL and aliquoted into a 96-well plate at 900 μL/well. Buffer or test compound were added at 20-times final concentration in the buffer at 50 μL/well. Membranes and test compounds or buffer were incubated for 10 min. at room temperature. Radiolableled [S—(R*,R*)]-[3-[[1-(3,4-dichlorophenyl)ethyl]amino]-2-hydroxypropyl](cyclohexylmethyl) phosphinic acid (CGP54626) was then added at 50 μL/well in the buffer at 1-10 nM concentration in 50 μl. […] The assay mixture was filtered using Brandell filtration apparatus and GFB filters, washed twice with 3 mL of 4° C., 50 mM Tris pH 7.4, buffer without isoguvacine. The filters were then dried at room temperature and the dried filters punched out and placed in individual vials. Three (3) mL of scintillation fluid was added to each vial and the radiolabel counted on the scintillation counter. The inverse amount of radiolabel was indicative of binding of a test compound to the GABAB receptor.
The following procedure was used to determine the level of intracellular cAMP. Recombinant HEK cells expressing the GABAB R1a2 receptor were used in the experiments. cAMP levels were measured using a cAMP XS^+ HitHunter™ Chemiluminescence Assay Kit (90-0075-02, GE Healthcare Biosciences Corp.). Cells were seeded overnight at 5,000 cells per well, in black, clear bottom 96-well plates. The following morning, cells were washed twice with 100 μL PBS per well. Forskolin was weighed out and dissolved in DMSO to a final concentration 100 mM. One-hundred (100) μM forskolin solutions were prepared in PBS with and without test compound at 1-times final concentration. Thirty (30) μL of the test solutions were added to the wells and incubated for 1 h at room temperature. The cAMP concentration was determined according to the protocol described in the cAMP assay kit, maintaining the plate at room temperature and in the dark. […] Each well was read for 6 seconds. The untransformed data was then analyzed.
The following procedure was used to determine the GABAB receptor agonist activity of a compound as reflected by activation of Ca^2+ signaling. HEK TREx cells expressing GABABR1a2 under tetracycline induction control, and Gqi chimeric protein (expressed constitutively), allowing GABABR coupling through the Ca^2+ signaling pathway were used in the experiments.
Cells were seeded in media containing tetracycline overnight at 100,000 cells/well, in black, clear-bottom, 96-well plates. The following morning, cells were washed twice with 100 μL HBSS buffer per well. Fluorescent Ca^2+ indicator dye was prepared using the materials and procedure described in the F362056 Fluo-4 NW Calcium Assay Kit (Invitrogen, Carlsbad, Calif.). Ten (10) mL of kit buffer and 100 μl of kit Probenecid were added to individual kit dye vials, and rolled back and forth several times to dissolve the dye. Cells were then loaded into the dye solution at 50 μL per well. The cells and dye were incubated for 30 min at 37° C., and then incubated for an additional 30 min at room temperature in the dark. Test compounds are dissolved in HBSS buffer at twice final concentration. Duplicate wells were used for each unique condition. Solution containing the test compound was added to the wells using a FLEXStation II (Molecular Devices, Sunnyvale, Calif.). Using the instrument in kinetic mode in which each well was read every 2 sec over a total collection time of 50 sec fluorescence was measured using an excitation wavelength 494 nm and a detection wavelength of 516 nm. A normalized fluorescence value for each well was calculated using the following procedure.

The text below walks through data of patent publication US8344028B2, “Gamma-amino-butyric acid derivatives as GABAB receptor ligands” (XenoPort, Inc., priority 2009, dated 2013).

Sequence of GABAB receptor (Q9UBS5 20-961): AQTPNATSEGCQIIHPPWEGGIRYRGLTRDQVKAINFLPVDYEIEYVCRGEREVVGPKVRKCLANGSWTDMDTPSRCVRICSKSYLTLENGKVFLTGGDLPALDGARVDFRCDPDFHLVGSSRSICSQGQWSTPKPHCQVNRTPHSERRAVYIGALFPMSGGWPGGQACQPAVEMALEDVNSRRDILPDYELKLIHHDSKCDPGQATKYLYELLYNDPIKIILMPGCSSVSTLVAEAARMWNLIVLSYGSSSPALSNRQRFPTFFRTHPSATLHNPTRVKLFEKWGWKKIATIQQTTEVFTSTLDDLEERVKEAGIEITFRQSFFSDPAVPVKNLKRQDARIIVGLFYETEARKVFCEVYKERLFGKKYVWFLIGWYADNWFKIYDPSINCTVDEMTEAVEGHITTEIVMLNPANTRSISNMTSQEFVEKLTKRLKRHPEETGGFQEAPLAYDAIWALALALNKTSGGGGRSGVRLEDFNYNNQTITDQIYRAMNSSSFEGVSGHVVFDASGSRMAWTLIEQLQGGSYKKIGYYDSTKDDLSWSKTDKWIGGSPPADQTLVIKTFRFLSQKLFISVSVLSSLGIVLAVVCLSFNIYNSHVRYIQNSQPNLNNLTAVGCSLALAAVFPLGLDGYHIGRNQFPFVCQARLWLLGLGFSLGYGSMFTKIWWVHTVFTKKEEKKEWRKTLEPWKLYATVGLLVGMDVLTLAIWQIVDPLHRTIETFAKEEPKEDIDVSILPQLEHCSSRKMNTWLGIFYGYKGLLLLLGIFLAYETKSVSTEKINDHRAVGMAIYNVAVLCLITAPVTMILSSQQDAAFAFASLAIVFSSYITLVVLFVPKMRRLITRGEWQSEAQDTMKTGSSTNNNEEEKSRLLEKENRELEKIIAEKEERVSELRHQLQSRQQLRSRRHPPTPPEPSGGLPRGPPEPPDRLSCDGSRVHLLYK
Sequence of GABAB receptor (O75899 42-941 partner): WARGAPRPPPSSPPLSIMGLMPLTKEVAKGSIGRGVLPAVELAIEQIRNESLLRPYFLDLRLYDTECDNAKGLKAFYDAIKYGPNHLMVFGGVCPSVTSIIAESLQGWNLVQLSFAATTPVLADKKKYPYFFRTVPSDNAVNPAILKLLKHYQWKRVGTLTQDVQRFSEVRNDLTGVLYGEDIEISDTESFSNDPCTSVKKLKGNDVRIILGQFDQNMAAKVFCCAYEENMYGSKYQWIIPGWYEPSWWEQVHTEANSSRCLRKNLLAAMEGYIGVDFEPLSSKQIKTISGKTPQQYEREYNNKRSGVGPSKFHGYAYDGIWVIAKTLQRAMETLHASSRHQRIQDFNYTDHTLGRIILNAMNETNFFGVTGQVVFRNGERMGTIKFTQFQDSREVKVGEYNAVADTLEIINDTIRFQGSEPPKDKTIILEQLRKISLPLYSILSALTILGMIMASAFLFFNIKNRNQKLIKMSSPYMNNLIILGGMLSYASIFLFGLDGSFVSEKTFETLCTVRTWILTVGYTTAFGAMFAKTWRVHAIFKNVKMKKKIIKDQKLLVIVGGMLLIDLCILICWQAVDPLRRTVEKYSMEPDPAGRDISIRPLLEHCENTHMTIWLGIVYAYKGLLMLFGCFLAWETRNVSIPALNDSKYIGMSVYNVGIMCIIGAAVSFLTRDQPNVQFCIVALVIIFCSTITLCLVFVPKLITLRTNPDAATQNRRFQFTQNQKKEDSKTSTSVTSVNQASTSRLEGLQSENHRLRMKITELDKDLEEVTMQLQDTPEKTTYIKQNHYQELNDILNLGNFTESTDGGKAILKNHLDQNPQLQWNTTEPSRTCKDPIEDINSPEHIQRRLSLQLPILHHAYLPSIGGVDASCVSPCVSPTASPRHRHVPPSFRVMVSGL

For `Cc1ccc(CNc2cc([C@H](CN)CC(=O)O)ccc2Cl)cc1.Cl` [(3R)-4-amino-3-(4-chloro-3-{[(4-methylphenyl)methyl]amino}phenyl)butanoic acid hydrochloride], the “GABAB receptor agonist or partial agonist activity” value is reported as “agonist or partial agonist activity”.
The value for `Cl.NC[C@H](CC(=O)O)c1ccc(Cl)c(NCc2ccc([N+](=O)[O-])cc2)c1` [(3R)-4-amino-3-(4-chloro-3-{[(4-nitrophenyl)methyl]amino}phenyl)butanoic acid hydrochloride] was “agonist or partial agonist activity”; that for `NC[C@H](CC(=O)O)c1cc(Br)c(Cl)c(-c2cccnc2)c1` [(3R)-4-amino-3-(5-bromo-4-chloro-3-(3-pyridyl)phenyl)butanoic acid] was “agonist or partial agonist activity”; that for `Cl.NC[C@H](CC(=O)O)c1ccc(Cl)c(NCc2cc(C(F)(F)F)cc(C(F)(F)F)c2)c1` [(3R)-4-amino-3-[3-({[3,5-bis(trifluoromethyl)phenyl]methyl}amino)-4-chlorophenyl]butanoic acid hydrochloride] was “agonist or partial agonist activity”.
With `CC(C)(C)Oc1ccc(CNc2cc([C@H](CN)CC(=O)O)ccc2Cl)cc1.Cl` [(3R)-4-amino-3-[3-({[4-(tert-butoxy)phenyl]methyl}amino)-4-chlorophenyl]butanoic acid hydrochloride] the entry was “agonist or partial agonist activity”; with `Cl.N#Cc1cccc(-c2cc([C@H](CN)CC(=O)O)cc(Br)c2Cl)c1` [(3R)-4-amino-3-[3-bromo-4-chloro-5-(3-cyanophenyl]butanoic acid hydrochloride], “agonist or partial agonist activity”.
With `Cl.N#Cc1cccc(-c2cc(Cl)ccc2[C@H](CN)CC(=O)O)c1` [(3R)-4-amino-3-[4-chloro-2-(3-cyanophenyl)phenyl]butanoic acid hydrochloride] the entry was “agonist or partial agonist activity”; with `Cl.NC[C@H](CC(=O)O)c1ccc(Cl)c(-c2ccc(Cl)cc2Cl)c1` [(3R)-4-amino-3-[4-chloro-3-(2,4-dichlorophenyl)phenyl]butanoic acid hydrochloride], “agonist or partial agonist activity”.
On to `Cl.NC[C@H](CC(=O)O)c1ccc(Cl)c(CCc2ccccn2)c1` [(3R)-4-amino-3-[4-chloro-3-(2-(2-pyridyl)ethyl)phenyl]butanoic acid hydrochloride], for which the “GABAB receptor agonist or partial agonist activity” value is given as “agonist or partial agonist activity”.
With `NC[C@H](CC(=O)O)c1ccc(Cl)c(NC(=O)c2ccccn2)c1` [(3R)-4-amino-3-[4-chloro-3-(2-pyridylcarbonylamino)phenyl]butanoic acid], the “GABAB receptor agonist or partial agonist activity” value was “agonist or partial agonist activity”.
With `Cl.NC[C@H](CC(=O)O)c1ccc(Cl)c(OCc2ccccn2)c1` [(3R)-4-amino-3-[4-chloro-3-(2-pyridylmethoxy)phenyl]butanoic acid hydrochloride] the entry was “agonist or partial agonist activity”; with `Cl.NC[C@H](CC(=O)O)c1ccc(Cl)c(-c2cc(F)c(F)c(F)c2)c1` [(3R)-4-amino-3-[4-chloro-3-(3,4,5-trifluorophenyl)phenyl]butanoic acid hydrochloride], “agonist or partial agonist activity”; with `Cl.NC[C@H](CC(=O)O)c1ccc(Cl)c(-c2ccc(Cl)c(Cl)c2)c1` [(3R)-4-amino-3-[4-chloro-3-(3,4-dichlorophenyl)phenyl]butanoic acid hydrochloride], “agonist or partial agonist activity”.
With `Cl.NC[C@H](CC(=O)O)c1ccc(Cl)c(-c2ccc(O)c(Cl)c2)c1` [(3R)-4-amino-3-[4-chloro-3-(3-chloro-4-hydroxyphenyl)phenyl]butanoic acid hydrochloride] the entry was “agonist or partial agonist activity”; with `Cl.N#Cc1cccc(-c2cc([C@H](CN)CC(=O)O)ccc2Cl)c1F` [(3R)-4-amino-3-[4-chloro-3-(3-cyano-2-fluorophenyl)phenyl]butanoic acid hydrochloride], “agonist or partial agonist activity”.
The value for `Cl.N#Cc1cc(-c2cc([C@H](CN)CC(=O)O)ccc2Cl)ccc1F` [(3R)-4-amino-3-[4-chloro-3-(3-cyano-4-fluorophenyl)phenyl]butanoic acid hydrochloride] was “agonist or partial agonist activity”; that for `Cc1ccc(-c2cc([C@H](CN)CC(=O)O)ccc2Cl)cc1C#N.Cl` [(3R)-4-amino-3-[4-chloro-3-(3-cyano-4-methylphenyl)phenyl]butanoic acid hydrochloride] was “agonist or partial agonist activity”; that for `Cl.N#Cc1cc(O)cc(-c2cc([C@H](CN)CC(=O)O)ccc2Cl)c1` [(3R)-4-amino-3-[4-chloro-3-(3-cyano-5-hydroxyphenyl)phenyl]butanoic acid hydrochloride] was “agonist or partial agonist activity”.
As to `Cl.N#Cc1ccc(O)c(-c2cc([C@H](CN)CC(=O)O)ccc2Cl)c1` [(3R)-4-amino-3-[4-chloro-3-(3-cyano-6-hydroxyphenyl)phenyl]butanoic acid hydrochloride], the “GABAB receptor agonist or partial agonist activity” value is on record as “agonist or partial agonist activity”.
With `NC[C@H](CC(=O)O)c1ccc(Cl)c(-c2ccsc2)c1` [(3R)-4-amino-3-[4-chloro-3-(3-thienyl)phenyl]butanoic acid] the entry was “agonist or partial agonist activity”; with `Cl.NC[C@H](CC(=O)O)c1ccc(Cl)c(-c2cc(Cl)ccn2)c1` [(3R)-4-amino-3-[4-chloro-3-(4-chloro(2-pyridyl))phenyl]butanoic acid hydrochloride], “agonist or partial agonist activity”.
With `Cc1cc(-c2cc([C@H](CN)CC(=O)O)ccc2Cl)ccc1Cl.Cl` [(3R)-4-amino-3-[4-chloro-3-(4-chloro-3-methylphenyl)phenyl]butanoic acid hydrochloride] the entry was “agonist or partial agonist activity”; with `Cl.NC[C@H](CC(=O)O)c1ccc(Cl)c(Cc2ccncc2)c1` [(3R)-4-amino-3-[4-chloro-3-(4-pyridylmethyl)phenyl]butanoic acid hydrochloride], “agonist or partial agonist activity”.
The value for `Cl.N#Cc1cc(Cl)cc(-c2cc([C@H](CN)CC(=O)O)ccc2Cl)c1` [(3R)-4-amino-3-[4-chloro-3-(5-chloro-3-cyanophenyl)phenyl]butanoic acid hydrochloride] was “agonist or partial agonist activity”.
For the molecule `Cl.N#Cc1cncc(-c2cc([C@H](CN)CC(=O)O)ccc2Cl)c1` [(3R)-4-amino-3-[4-chloro-3-(5-cyano(3-pyridyl))phenyl]butanoic acid hydrochloride], the “GABAB receptor agonist or partial agonist activity” value is recorded as “agonist or partial agonist activity”.
With `Cl.N#Cc1cccc(-c2cc([C@H](CN)CC(=O)O)ccc2Cl)n1` [(3R)-4-amino-3-[4-chloro-3-(6-cyano(2-pyridyl))phenyl]butanoic acid hydrochloride] the entry was “agonist or partial agonist activity”.
